Earlier results in US20120142645A1, “NEUROACTIVE STEROID COMPOSITIONS AND METHODS OF USE FOR LOWERING CHOLESTEROL” (priority 2009, published 2012).

Test system: acute moderate to severe traumatic brain injury
Conditions: intravenous for three days; Wright et al., 2007; cited from earlier work

CC(=O)[C@H]1CC[C@H]2[C@@H]3CCC4=CC(=O)CC[C@]4(C)[C@H]3CC[C@]12C [progesterone]
Reduction of 30-day mortality rates: over 50%
